Key:
[1] = target: T1, Ephrin type-B receptor 6 (Homo sapiens) (UniProt O15197); test: Selectivity interaction (KinomeScan (DiscoverX)) EUB0001079a EPHB6; conditions: at 1 µM
T1 sequence (whole entry): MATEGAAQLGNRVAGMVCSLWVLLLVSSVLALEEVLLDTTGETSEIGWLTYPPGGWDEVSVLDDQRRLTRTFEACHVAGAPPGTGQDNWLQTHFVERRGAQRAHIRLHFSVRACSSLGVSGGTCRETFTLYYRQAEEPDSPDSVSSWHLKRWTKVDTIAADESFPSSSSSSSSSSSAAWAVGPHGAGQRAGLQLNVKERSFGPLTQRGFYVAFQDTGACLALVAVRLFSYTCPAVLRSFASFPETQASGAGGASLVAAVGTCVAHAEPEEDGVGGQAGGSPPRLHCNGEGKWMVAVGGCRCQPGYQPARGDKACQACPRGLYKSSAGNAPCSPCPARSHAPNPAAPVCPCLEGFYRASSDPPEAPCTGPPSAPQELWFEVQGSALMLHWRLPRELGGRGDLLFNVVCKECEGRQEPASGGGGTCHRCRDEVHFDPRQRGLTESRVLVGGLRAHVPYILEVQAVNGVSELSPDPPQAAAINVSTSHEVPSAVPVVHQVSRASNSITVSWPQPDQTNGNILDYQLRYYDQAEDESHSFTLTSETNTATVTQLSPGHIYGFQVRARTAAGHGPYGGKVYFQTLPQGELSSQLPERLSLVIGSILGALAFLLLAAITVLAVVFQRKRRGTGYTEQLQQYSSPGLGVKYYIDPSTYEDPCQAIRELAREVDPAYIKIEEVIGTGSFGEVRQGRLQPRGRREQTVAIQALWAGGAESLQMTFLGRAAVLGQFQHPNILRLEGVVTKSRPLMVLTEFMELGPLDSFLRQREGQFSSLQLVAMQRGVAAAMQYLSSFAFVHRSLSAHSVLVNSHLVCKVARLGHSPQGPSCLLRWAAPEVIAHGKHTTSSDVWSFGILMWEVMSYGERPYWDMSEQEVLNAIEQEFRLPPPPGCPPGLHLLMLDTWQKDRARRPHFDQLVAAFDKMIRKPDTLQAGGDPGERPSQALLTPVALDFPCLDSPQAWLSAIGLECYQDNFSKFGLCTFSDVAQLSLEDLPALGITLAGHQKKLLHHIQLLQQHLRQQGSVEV

[2] = target: Glycogen synthase kinase-3 alpha (Homo sapiens, UniProt P49840); test: Selectivity interaction (Competition-binding assay (DiscoverX)) EUB0001632a GSK3A
[3] = target: Ribosomal protein S6 kinase alpha-3 (Homo sapiens, UniProt P51812); test: Selectivity interaction (ActivX KiNativ screen (kinase selectivity in THP-1 cell lysates)) EUB0000639a RPS6KA3; assay type: subcellular; conditions: lysate, at 1 µM
[4] = target: T2, Mitogen-activated protein kinase kinase kinase 6 (Homo sapiens) (UniProt O95382); test: Selectivity interaction (ActivX KiNativ screen (kinase selectivity in THP-1 cell lysates)) EUB0000639a MAP3K6; assay type: subcellular; conditions: lysate, at 0.04 µM
T2 sequence (whole entry): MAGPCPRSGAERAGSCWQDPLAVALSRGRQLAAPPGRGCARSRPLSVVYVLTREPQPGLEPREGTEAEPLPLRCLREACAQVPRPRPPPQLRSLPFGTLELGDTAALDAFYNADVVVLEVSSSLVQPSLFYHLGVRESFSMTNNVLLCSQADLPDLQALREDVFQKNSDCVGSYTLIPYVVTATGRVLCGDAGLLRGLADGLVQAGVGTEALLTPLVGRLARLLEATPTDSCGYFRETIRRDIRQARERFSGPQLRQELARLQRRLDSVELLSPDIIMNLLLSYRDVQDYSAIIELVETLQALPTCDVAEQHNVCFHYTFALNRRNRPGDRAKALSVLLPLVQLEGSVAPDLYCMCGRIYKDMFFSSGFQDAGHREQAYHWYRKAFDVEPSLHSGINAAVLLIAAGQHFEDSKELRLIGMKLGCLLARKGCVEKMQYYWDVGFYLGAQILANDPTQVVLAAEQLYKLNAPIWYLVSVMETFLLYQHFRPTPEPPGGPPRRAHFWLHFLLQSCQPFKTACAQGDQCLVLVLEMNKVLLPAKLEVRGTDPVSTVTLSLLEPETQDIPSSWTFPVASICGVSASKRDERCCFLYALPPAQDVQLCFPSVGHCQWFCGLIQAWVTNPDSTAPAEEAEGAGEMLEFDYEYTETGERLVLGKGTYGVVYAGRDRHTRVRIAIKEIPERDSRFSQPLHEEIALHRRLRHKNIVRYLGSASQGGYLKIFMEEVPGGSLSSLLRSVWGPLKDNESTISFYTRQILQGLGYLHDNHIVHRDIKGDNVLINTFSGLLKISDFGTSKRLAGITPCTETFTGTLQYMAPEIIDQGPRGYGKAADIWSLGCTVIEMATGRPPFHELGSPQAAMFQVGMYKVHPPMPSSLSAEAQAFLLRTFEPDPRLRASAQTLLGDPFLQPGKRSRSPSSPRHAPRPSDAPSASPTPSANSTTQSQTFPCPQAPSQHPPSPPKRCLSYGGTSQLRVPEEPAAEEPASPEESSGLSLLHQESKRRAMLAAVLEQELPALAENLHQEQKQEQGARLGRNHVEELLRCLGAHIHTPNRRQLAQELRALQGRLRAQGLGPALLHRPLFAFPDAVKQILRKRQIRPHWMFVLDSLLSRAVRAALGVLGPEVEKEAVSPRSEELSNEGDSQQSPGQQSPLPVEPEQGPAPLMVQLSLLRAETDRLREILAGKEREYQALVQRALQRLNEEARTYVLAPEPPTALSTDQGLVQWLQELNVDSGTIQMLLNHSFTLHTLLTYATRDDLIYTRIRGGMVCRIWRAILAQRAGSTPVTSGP

[5] = target: Bone morphogenetic protein receptor type-1A (Homo sapiens, UniProt P36894); test: Selectivity interaction (KinomeScan (DiscoverX)) EUB0000092b BMPR1A; conditions: at 10 µM
Bone morphogenetic protein receptor type-1A, sequence (P36894 whole entry): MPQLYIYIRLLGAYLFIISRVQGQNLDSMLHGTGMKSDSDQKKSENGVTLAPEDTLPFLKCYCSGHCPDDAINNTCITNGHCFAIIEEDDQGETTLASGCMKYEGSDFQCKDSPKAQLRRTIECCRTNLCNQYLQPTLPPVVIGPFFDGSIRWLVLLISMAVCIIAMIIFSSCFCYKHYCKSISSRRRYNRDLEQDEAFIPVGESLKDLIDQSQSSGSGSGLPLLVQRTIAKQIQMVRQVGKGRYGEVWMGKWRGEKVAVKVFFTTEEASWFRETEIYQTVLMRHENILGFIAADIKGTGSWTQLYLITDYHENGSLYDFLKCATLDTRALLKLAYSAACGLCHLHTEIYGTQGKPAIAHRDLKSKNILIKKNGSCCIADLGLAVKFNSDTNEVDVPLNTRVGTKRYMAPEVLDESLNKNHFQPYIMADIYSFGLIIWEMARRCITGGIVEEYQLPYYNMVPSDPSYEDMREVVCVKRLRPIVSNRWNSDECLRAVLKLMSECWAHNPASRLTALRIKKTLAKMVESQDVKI

Glycogen synthase kinase-3 alpha, sequence (P49840 whole entry): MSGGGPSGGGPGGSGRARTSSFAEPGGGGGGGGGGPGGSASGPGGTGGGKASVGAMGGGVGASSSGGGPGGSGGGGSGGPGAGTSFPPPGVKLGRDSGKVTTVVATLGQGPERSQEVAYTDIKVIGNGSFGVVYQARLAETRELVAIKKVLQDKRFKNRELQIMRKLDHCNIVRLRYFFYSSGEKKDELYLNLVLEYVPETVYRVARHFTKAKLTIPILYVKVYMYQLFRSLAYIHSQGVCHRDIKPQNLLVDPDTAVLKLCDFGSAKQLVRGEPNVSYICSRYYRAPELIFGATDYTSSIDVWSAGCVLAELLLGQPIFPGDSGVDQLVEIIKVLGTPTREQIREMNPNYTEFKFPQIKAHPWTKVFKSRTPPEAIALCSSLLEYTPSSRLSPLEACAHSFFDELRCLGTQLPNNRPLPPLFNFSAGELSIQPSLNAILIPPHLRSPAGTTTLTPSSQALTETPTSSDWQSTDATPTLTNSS
Ribosomal protein S6 kinase alpha-3, sequence (P51812 whole entry): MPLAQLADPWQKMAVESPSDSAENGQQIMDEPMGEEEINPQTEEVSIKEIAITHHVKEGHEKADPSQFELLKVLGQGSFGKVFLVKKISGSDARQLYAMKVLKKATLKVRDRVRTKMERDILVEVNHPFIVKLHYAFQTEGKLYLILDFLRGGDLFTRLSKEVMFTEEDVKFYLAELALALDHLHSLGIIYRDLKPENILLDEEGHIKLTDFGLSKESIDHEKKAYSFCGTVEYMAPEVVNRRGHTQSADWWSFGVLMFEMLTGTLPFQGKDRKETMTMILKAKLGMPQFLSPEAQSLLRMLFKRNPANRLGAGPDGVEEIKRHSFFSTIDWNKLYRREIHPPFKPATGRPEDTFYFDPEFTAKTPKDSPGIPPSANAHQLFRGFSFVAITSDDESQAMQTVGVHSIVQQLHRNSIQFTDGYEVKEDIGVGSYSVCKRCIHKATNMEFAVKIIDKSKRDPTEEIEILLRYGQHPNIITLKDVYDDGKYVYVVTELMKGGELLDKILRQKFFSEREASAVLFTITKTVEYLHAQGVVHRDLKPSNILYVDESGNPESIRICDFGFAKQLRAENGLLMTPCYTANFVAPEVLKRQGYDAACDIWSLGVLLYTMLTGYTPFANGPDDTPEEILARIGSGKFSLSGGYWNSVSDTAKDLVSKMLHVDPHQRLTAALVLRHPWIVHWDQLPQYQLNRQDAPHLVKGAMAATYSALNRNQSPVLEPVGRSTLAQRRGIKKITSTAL

Question: `Nc1cnc(N2CCc3cc(S(=O)(=O)Nc4c(F)cc(Cl)cc4F)cc(N4CCCC4=O)c32)nc1` [TP-020n] was tested. Which % of control [1] did it give?
Answer: 100%

Question: With `Cn1cc(-n2cnc3c(NCc4nc5cc(Cl)c(Cl)cc5[nH]4)nc(N4CCOCC4)nc32)cn1` as the compound, how does the Kd [2] read?
Answer: 1200 nM

Question: With `CC[C@@H]1[C@H](F)C(=O)N[C@@H]1COc1nccc2cc(C(N)=O)c(OC)cc12` [ZIMLOVISERTIB] as the compound, how does the % of inhibition [3] read?
Answer: -8.2%

Question: What about the % of inhibition [4] of the same compound?
Answer: 3.6%

Question: How did the % of control [5] turn out when `CCC(=O)N1CCN(c2ccc(-n3c(=O)ccc4cnc5ccc(-c6cnc7ccccc7c6)cc5c43)cc2C(F)(F)F)CC1` was run?
Answer: 45%
